Test [1] addresses PI3Kγ (p110γ) Recombinant Human Protein (Homo sapiens (Human), UniProt P48736). Kind of test: PI3K-γ scintillation proximity assay. Type of test: biochemical. The conditions noted are these: 20 μM PIP2, 2 μM ATP, 13 nM PI3Kγ, 120 min, room temperature. The procedure, abridged: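 Radiometric SPA in 20 mM MOPS pH 6.7, 10 mM MgCl2, 5 mM DTT, 0.03% CHAPS, 2% DMSO. Stopped with EDTA and WGA SPA beads for scintillation counting. IC50 fitted from % solvent-control activity versus log concentration.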

Test [2] addresses PI3Kδ (p110δ/p85α) Recombinant Human Protein (Homo sapiens (Human), UniProt O00329). Kind of test: PI3Kδ scintillation proximity assay. Conditions: 20 μM PIP2, 2 μM ATP, 3.4 nM PI3Kδ, 120 min, room temperature; read-out: PI3Kδ IC50. Type of test: biochemical. In outline: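 Recombinant human p110δ/p85α was run at room temperature in 20 mM MOPS pH 6.7, 10 mM MgCl2, 5 mM DTT, 0.03% CHAPS, 2% DMSO. Substrates were 20 µM PIP2 and 2 µM ATP with [γ-33P]ATP. Product was captured overnight on WGA SPA beads and counted by scintillation; IC50 fitted from percent of solvent control versus log concentration.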
On the technique in general: Scintillation proximity formats need no separation of bound from free tracer.

In test [3] the test system is Phosphorylated Ribosomal Protein S6 (RPS6) in THP-1 cells. Kind of test: THP-1 RPS6 ELISA assay. Type of test: cell-based, Human. The conditions noted are these: Homo sapiens, THP-1, THP-1 cells, serum starved, 2 h compound, 10 nM MCP-1 for 15 min, phospho-RPS6 ELISA; read-out: PI3Kγ_THP1_RPS6_ELISA IC50. In outline:
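Phospho-RPS6 in lysates measured by ELISA at 450 nm, corrected at 540 nm, after MCP-1 challenge (10 nM, 15 min) of THP-1 cells that were starved overnight and exposed to test compound for 2 h at 37° C, 2×10^5 cells/well. Curve fit of percent inhibition gives IC50.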
A general note: An ELISA detects its analyte on a solid surface through an enzyme-linked reagent.

Structures are written as SMILES. Counter-ions that a name gives are not always drawn.

As a reminder, the IC50 is the concentration that gives 50% inhibition.

PI3Kδ (p110δ/p85α) Recombinant Human Protein, sequence (O00329 whole entry): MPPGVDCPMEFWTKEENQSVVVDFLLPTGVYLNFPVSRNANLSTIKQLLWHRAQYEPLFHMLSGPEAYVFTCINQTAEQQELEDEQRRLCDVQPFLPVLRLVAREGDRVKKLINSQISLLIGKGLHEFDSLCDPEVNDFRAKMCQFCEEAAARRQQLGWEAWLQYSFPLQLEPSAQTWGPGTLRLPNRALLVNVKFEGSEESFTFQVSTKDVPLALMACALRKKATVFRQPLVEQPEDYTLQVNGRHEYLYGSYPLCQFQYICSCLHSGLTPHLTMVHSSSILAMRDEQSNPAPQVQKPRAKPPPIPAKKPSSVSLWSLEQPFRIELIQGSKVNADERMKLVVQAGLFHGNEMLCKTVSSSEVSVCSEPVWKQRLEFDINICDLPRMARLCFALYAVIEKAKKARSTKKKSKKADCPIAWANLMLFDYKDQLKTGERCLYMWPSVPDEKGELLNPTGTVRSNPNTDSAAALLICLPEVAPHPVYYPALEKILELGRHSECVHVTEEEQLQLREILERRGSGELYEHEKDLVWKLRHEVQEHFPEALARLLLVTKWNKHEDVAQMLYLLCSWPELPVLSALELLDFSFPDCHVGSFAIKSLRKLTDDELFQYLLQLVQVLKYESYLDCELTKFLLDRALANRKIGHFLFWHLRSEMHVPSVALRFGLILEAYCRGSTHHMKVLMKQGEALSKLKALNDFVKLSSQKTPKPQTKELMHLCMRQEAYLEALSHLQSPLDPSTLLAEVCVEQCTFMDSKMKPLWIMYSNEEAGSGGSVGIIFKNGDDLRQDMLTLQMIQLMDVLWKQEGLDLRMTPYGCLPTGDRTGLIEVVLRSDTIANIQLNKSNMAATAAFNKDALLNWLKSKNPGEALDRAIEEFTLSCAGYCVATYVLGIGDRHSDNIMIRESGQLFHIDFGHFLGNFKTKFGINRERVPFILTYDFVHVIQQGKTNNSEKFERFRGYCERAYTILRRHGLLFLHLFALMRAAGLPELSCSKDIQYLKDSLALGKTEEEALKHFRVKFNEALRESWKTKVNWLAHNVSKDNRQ
PI3Kδ (p110δ/p85α) Recombinant Human Protein, sequence (P27986 whole entry partner): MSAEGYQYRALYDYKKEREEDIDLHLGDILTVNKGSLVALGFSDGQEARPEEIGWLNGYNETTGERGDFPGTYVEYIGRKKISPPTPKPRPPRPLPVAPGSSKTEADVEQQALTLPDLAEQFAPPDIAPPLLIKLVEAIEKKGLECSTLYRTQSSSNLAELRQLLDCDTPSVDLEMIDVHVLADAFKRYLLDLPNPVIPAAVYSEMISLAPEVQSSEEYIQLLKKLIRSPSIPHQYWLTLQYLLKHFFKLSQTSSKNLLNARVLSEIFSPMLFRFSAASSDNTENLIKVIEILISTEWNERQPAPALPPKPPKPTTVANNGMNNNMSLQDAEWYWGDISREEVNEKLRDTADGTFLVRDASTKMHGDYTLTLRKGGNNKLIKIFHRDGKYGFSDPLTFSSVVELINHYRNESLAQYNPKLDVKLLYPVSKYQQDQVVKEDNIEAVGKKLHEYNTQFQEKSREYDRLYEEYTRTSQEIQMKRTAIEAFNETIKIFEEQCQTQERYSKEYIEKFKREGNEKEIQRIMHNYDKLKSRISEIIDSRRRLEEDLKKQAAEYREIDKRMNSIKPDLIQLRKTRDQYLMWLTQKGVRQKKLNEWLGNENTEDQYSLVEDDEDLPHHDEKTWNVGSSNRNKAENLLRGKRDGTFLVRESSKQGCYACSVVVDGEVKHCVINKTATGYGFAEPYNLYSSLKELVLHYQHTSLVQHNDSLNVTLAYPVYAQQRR
PI3Kγ (p110γ) Recombinant Human Protein, sequence (P48736 whole entry): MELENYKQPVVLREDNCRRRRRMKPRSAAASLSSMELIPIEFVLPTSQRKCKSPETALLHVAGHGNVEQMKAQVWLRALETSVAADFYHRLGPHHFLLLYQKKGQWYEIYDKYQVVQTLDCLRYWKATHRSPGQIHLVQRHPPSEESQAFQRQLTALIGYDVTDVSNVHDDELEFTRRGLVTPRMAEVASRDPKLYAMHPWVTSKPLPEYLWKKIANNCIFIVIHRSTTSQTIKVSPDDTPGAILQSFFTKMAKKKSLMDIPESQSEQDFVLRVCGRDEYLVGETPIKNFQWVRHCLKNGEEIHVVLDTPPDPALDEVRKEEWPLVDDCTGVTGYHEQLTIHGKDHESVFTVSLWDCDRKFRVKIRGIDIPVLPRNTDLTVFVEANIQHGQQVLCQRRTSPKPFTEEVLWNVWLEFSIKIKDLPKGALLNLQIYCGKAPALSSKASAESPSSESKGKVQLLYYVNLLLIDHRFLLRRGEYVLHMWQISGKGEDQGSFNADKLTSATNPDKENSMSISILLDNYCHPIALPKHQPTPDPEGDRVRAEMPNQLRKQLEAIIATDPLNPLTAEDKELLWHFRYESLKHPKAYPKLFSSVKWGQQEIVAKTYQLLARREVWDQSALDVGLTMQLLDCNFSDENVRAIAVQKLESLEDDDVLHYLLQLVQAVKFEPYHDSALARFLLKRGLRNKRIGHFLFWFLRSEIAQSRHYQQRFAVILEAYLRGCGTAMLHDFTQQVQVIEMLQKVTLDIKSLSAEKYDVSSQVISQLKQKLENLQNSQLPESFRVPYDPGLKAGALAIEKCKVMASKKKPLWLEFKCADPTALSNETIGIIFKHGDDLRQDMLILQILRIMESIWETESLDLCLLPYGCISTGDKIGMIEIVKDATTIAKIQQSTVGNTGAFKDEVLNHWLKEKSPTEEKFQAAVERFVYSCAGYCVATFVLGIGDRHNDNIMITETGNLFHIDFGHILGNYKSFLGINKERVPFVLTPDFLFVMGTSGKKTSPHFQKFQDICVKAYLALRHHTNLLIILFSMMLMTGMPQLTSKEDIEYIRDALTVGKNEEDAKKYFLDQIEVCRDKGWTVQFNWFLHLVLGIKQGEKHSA

Take `Cc1ccc(C(C)(O)C(F)(F)F)cc1-c1cnc2c(N)nc(C(=O)NCC3(C#N)CCC3)cn12` (stereo not drawn) [Example 283, 8-Amino-N-((1-cyanocyclobutyl)methyl)-3-(2-methyl-5-(1,1,1-trifluoro-2-hydroxypropan-2-yl)phenyl)imidazo[1,2-a]pyrazine-6-carboxamide trifluoroacetate salt]: the values for the IC50 in test [1], in test [2] and in test [3] were < 100 nM, < 100 nM and > 1000 nM, respectively.
Turning to `Cc1ccc(C(O)(C(N)=O)C(F)(F)F)cc1-c1cnc2c(N)nc(C(=O)NCC(C)(C)O)cn12` (stereo not drawn) [Example 284, 8-Amino-3-(5-(3-amino-1,1,1-trifluoro-2-hydroxy-3-oxopropan-2-yl)-2-methylphenyl)-N-(2-hydroxy-2-methylpropyl)imidazo[1,2-a]pyrazine-6-carboxamide], the IC50 in test [1] was < 100 nM; in test [2], 100 to 500 nM; in test [3] it was < 100 nM.
Consider `Cc1ccc(C(O)(C(N)=O)C(F)(F)F)cc1-c1cnc2c(N)nc(C(=O)NC3CCOCC3)cn12` (stereo not drawn) [Example 285, 8-Amino-3-(5-(3-amino-1,1,1-trifluoro-2-hydroxy-3-oxopropan-2-yl)-2-methylphenyl)-N-(tetrahydro-2H-pyran-4-yl)imidazo[1,2-a]pyrazine-6-carboxamide], for which the IC50 is < 100 nM in test [1], 500 to 2000 nM in test [2] and 100 to 500 nM in test [3].
For `Cc1ccc(C(O)(C(N)=O)C(F)(F)F)cc1-c1cnc2c(N)nc(C(=O)NC34CC(F)(C3)C4)cn12` (stereo not drawn) [Example 288, 8-Amino-3-(5-(3-amino-1,1,1-trifluoro-2-hydroxy-3-oxopropan-2-yl)-2-methylphenyl)-N-(3-fluorobicyclo[1.1.1]pentan-1-yl)imidazo[1,2-a]pyrazine-6-carboxamide trifluoroacetate salt] the same measures were < 100 nM, 100 to 500 nM and < 100 nM.
For `[2H]C([2H])([2H])NC(=O)C(O)(c1ccc(C)c(-c2cnc3c(N)nc(C(=O)NC(CC#N)C(F)(F)F)cn23)c1)C(F)(F)F` (stereo not drawn) [Example 289, 8-Amino-N-(3-cyano-1,1,1-trifluoropropan-2-yl)-3-(2-methyl-5-(1,1,1-trifluoro-2-hydroxy-3-((methyl-d3)amino)-3-oxopropan-2-yl)phenyl)imidazo[1,2-a]pyrazine-6-carboxamide trifluoroacetate salt] the same measures were < 100 nM, 100 to 500 nM and < 100 nM.

The values above are taken from patent US10738057B2, “Tertiary alcohols as PI3K-γ inhibitors” (Incyte Corporation, priority 2017, dated 2020).
